Test results reported in ChEMBL document CHEMBL6087385, “Synthesis and biological evaluation of Ribo 7-N/O/S pyrimidine 9-deaza C-nucleoside analogs as new antiviral agents for inhibiting HCV RNA-dependent RNA polymerases” (Eur J Med Chem, 2024).
Calls of active or inactive are those of the source. No cut-off for these calls is given here.

What was measured:
Hepatitis C virus [1] = assay: Antiviral activity against Hepatitis C virus infected in Ava5 cells assessed as inhibition of viral RNA replication incubated for 72 hrs by RT-PCR analysis; assay type: functional, organism-based; conditions: for Activity: Hepacivirus hominis
Hepatitis C virus [2] = assay: Antiviral activity against HCV infected in human Huh-7 cells assessed as inhibition of viral RNA replication incubated for 24 hrs by ribonuclease protection assay; assay type: functional, organism-based, Hepacivirus hominis; conditions: Huh-7, 24 h
Hepatitis C virus [3] = assay: Antiviral activity against HCV genotype 1a infected in GLuc-1 cells; assay type: functional, organism-based, Hepacivirus hominis
Hepatitis C virus [4] = assay: Anti-viral activity against HCV genotype 1b infected in human Huh-luc cells; assay type: functional, organism-based, Hepacivirus hominis
Hepatitis C virus [5] = assay: Anti-viral activity against HCV genotype 2a infected in 2aLucNeo-25 cells; assay type: functional, organism-based, Hepacivirus hominis
Hepatitis C virus [6] = assay: Anti-viral activity against HCV genotype 2a infected in Lunet-CD81 cells; assay type: functional, organism-based, Hepacivirus hominis

Row | Structure (SMILES) | Activity (Hepatitis C virus [1]) | other results
1 | C[C@@]1(O)[C@H](O)[C@@H](CO)O[C@H]1c1c[nH]c2c(=O)[nH]c(N)nc12 | inactive | –
2 | C[C@@]1(O)[C@H](O)[C@@H](CO)O[C@H]1c1coc2c(=O)[nH]c(N)nc12 | inactive | –
3 | C[C@@]1(O)[C@H](O)[C@@H](CO)O[C@H]1n1cnc2c(N)ncnc21 | – | EC50 (Hepatitis C virus [2]): 300 nM; EC50 (Hepatitis C virus [3]): 230 nM; EC50 (Hepatitis C virus [4]): 300 nM; EC50 (Hepatitis C virus [5]): 1430 nM; EC50 (Hepatitis C virus [6]): 300 nM
4 | C[C@@]1(O)[C@H](O)[C@@H](CO)O[C@H]1c1coc2c(=O)[nH]cnc12 | inactive | –
5 | C[C@@]1(O)[C@H](O)[C@@H](CO)O[C@H]1c1coc2c(N)nc(N)nc12 | inactive | –
6 | C[C@@]1(O)[C@H](O)[C@@H](COP(=O)(O)OP(=O)(O)OP(=O)(O)O)O[C@H]1c1coc2c(N)ncnc12 | – | IC50 (Hepatitis C virus [1]; Ava5, 72 h): 5000 nM
7 | C[C@@]1(O)[C@H](O)[C@@H](CO)O[C@H]1c1csc2c(N)ncnc12 | inactive | –
8 | C[C@@]1(O)[C@H](O)[C@@H](CO)O[C@H]1c1coc2c(=S)[nH]cnc12 | inactive | –
